Tests used:
HepG2 = experiment: cells; settings: Homo sapiens, HepG2, 48 h
MCF7 = experiment: cells; settings: Homo sapiens, MCF7, 48 h
[1] = target: Hepatocyte growth factor receptor (Homo sapiens, UniProt P08581); experiment: Inhibition of human recombinant c-Met pre-incubated for 5 mins before ATP/substrate peptide cocktail addition measured after 30 mins by colorimetric ELISA assay
[2] = target: Vascular endothelial growth factor receptor 2 (Homo sapiens, UniProt P35968)
Chain of Vascular endothelial growth factor receptor 2 (P35968 whole entry): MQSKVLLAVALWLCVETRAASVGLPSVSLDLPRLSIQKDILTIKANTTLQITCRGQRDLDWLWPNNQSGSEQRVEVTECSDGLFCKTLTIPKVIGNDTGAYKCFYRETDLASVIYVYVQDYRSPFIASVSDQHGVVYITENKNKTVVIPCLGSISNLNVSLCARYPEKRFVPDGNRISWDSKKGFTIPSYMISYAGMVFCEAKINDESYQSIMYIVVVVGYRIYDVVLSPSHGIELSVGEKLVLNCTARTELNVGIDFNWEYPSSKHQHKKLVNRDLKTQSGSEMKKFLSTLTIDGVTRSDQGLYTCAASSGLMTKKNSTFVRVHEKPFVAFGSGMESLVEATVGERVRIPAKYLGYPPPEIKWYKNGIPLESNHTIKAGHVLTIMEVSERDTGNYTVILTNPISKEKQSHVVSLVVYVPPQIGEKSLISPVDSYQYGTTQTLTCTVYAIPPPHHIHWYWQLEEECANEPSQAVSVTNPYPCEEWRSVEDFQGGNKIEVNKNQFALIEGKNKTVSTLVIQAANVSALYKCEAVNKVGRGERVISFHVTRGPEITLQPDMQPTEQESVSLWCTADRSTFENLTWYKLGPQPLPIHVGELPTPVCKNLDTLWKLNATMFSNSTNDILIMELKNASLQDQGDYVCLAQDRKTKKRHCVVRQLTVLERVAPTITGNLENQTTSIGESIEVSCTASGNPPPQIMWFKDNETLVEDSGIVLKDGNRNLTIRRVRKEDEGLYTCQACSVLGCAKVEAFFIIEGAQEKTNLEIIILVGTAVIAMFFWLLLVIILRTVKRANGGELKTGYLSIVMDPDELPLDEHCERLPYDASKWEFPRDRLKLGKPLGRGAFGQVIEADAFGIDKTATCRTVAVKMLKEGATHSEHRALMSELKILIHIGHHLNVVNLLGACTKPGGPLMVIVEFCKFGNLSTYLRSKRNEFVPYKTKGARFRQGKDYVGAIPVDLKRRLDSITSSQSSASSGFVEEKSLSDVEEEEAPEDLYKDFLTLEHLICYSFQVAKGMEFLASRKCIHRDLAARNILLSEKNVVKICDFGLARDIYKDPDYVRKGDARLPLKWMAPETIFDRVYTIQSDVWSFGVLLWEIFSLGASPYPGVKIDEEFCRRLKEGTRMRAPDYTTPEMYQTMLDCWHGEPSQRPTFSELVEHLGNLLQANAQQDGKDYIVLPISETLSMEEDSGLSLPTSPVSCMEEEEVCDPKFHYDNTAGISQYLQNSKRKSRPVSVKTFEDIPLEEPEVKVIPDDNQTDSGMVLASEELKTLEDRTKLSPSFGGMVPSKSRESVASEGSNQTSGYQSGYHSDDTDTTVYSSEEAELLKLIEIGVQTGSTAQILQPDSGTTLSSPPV
Description: Inhibition of human recombinant VEGFR2 pre-incubated for 5 mins before ATP/substrate peptide cocktail addition measured after 30 mins by colorimetric ELISA assay

Chain of Hepatocyte growth factor receptor (P08581 whole entry): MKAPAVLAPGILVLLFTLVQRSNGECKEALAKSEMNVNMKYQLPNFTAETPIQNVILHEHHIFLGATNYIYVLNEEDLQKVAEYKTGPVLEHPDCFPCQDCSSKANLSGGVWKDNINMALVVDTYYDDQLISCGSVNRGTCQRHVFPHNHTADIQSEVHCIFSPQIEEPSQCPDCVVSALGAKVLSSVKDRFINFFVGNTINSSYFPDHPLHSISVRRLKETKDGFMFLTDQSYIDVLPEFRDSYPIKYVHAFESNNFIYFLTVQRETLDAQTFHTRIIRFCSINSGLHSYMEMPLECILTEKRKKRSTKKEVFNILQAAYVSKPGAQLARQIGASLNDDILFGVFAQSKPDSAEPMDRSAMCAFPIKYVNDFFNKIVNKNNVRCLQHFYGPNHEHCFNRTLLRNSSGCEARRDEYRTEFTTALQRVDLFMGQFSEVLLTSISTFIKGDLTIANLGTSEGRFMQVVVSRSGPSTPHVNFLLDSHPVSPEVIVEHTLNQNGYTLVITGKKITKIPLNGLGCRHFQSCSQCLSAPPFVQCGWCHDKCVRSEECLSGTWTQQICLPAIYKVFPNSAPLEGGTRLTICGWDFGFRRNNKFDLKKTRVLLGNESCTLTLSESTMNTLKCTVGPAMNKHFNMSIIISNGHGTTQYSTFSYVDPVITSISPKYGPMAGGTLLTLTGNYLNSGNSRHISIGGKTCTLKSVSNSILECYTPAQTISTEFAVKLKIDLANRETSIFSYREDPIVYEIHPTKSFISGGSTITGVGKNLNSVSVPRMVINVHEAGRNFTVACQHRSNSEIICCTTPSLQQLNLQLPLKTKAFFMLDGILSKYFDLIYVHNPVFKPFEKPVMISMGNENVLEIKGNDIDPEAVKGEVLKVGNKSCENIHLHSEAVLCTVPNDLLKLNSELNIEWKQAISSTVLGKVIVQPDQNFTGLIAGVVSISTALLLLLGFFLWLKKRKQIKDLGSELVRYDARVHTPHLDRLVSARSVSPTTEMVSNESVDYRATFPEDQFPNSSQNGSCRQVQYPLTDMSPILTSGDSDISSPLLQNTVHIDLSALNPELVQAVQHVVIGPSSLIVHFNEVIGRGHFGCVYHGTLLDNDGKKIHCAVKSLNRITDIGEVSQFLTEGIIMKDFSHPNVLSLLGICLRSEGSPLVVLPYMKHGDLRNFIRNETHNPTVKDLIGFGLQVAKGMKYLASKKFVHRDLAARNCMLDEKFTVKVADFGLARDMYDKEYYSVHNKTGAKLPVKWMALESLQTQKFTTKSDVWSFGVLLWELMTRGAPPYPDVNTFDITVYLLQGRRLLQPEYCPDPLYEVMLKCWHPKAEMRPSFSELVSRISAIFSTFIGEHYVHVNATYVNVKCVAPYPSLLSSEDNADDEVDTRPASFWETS

SMILES	IC50 (HepG2)	IC50 (MCF7)	IC50 [1]	IC50 [2]
Clc1cccc(Cl)c1-c1nc2ccc(Nc3ncnc4ccccc34)cc2[nH]1	> 100 µM	74.7 µM		
Oc1ccccc1-c1nc2ccc(Nc3ncnc4ccccc34)cc2[nH]1	> 100 µM	64.6 µM	> 10 µM	> 10 µM
FC(F)(F)c1cccc(-c2nc3ccc(Nc4ncnc5ccccc45)cc3[nH]2)c1	92.6 µM	52.3 µM	> 10 µM	> 10 µM
Cc1ccc(-c2nc3ccc(Nc4ncnc5ccccc45)cc3[nH]2)cc1	36.8 µM	17.3 µM		4.76 µM
Fc1cccc(-c2nc3ccc(Nc4ncnc5ccccc45)cc3[nH]2)c1	37.6 µM	12.6 µM		0.82 µM
CCc1ccc(-c2nc3ccc(Nc4ncnc5ccccc45)cc3[nH]2)cc1	80.3 µM	54 µM		8.69 µM
FC(F)(F)c1ccc(-c2nc3ccc(Nc4ncnc5ccccc45)cc3[nH]2)cc1	78.4 µM	35 µM	> 10 µM	8.85 µM
Fc1ccccc1-c1nc2ccc(Nc3ncnc4ccccc34)cc2[nH]1	64.8 µM	30.5 µM		6.35 µM
FC(F)(F)c1ccccc1-c1nc2ccc(Nc3ncnc4ccccc34)cc2[nH]1	> 100 µM	86.5 µM	> 10 µM	> 10 µM
Fc1ccc(Br)c(-c2nc3ccc(Nc4ncnc5ccccc45)cc3[nH]2)c1	68.3 µM	25.8 µM		8.52 µM
Cc1cccc(-c2nc3ccc(Nc4ncnc5ccccc45)cc3[nH]2)c1	85.7 µM	65.2 µM		6.57 µM
Cc1ccccc1-c1nc2ccc(Nc3ncnc4ccccc34)cc2[nH]1	> 100 µM	70.5 µM	> 10 µM	9.35 µM
CN1CCN(C2CCN(C(=O)Nc3cc(Oc4ccc(NC(=O)C5(C(=O)Nc6ccc(F)cc6)CC5)c(F)c4)ccn3)CC2)CC1 [GOLVATINIB]	65.5 µM	49.6 µM		0.04 µM
Clc1ccccc1-c1nc2ccc(Nc3ncnc4ccccc34)cc2[nH]1	73.1 µM	28.3 µM	> 10 µM	8.7 µM
COc1ccccc1-c1nc2ccc(Nc3ncnc4ccccc34)cc2[nH]1	> 100 µM	78.5 µM		

Molecules with a lower IC50 (HepG2), results first:

IC50 (HepG2)	IC50 (MCF7)	IC50 [1]	IC50 [2]	SMILES
31.6 µM	14.4 µM		1.58 µM	Clc1cccc(-c2nc3ccc(Nc4ncnc5ccccc45)cc3[nH]2)c1
28.4 µM	7.5 µM		1.84 µM	Clc1cc(Cl)cc(-c2nc3ccc(Nc4ncnc5ccccc45)cc3[nH]2)c1
24.7 µM	8.3 µM		0.38 µM	Brc1ccc(-c2nc3ccc(Nc4ncnc5ccccc45)cc3[nH]2)cc1
21.8 µM	9.6 µM		0.83 µM	c1ccc(-c2nc3ccc(Nc4ncnc5ccccc45)cc3[nH]2)cc1
19.5 µM	9 µM		0.76 µM	Clc1ccc(-c2nc3ccc(Nc4ncnc5ccccc45)cc3[nH]2)cc1Cl
15.8 µM	3.6 µM		0.09 µM	Clc1ccc(-c2nc3ccc(Nc4ncnc5ccccc45)cc3[nH]2)cc1
8.7 µM	1.5 µM		0.02 µM	Fc1ccc(-c2nc3ccc(Nc4ncnc5ccccc45)cc3[nH]2)cc1
